GI50 and IC50 data for nine molecules are collected here from patent US20230183243A1, “HETEROARYL DERIVATIVES AND PHARMACEUTICAL COMPOSITION COMPRISING SAME AS ACTIVE INGREDIENT” (VORONOI INC., priority 2019, published 2023).

A word on the GI50: it is the concentration at which growth is held to half of that of the control. Read a low GI50 as more potent growth inhibition. By IC50 is commonly meant the concentration that inhibits the measured activity by half. Low readings indicate greater potency, high ones weaker potency.

Assay [1] relates to HCT116. The experiment in a line: Cell proliferation inhibition, carcinomas other than TNBC. The class given is cell-based. How it is done: (§1) To check an ability to inhibit the growth of (MDA-MB-231) cells in two triple-negative breast cancer cell lines, a test was performed, as follows. Cells were seeded in 180 μL of a culture broth at a density of 2,000 to 3,000 cells/well in a white clear bottom 96-well plate (Corning) according to the growth ability of each cell, and then cultured for 24 hours under conditions of 5% CO2 and 37° C. Thereafter, the compound was prepared by diluting a 10 mM stock solution three-fold with 100% DMSO at a total of 12 concentrations so that a peak concentration of the compound was in a range of 10 mM to 0.05 μM, and the diluted compound was then diluted in each cell culture medium so that a final concentration of the compound was in a range of 100 μM to 0.5 nM. 20 μL of a diluted solution diluted with a medium was added to the cell solution in which cells were seeded in the 96-well plate on the previous day so that a final concentration of the diluted solution was in a range of 10 μM to 0.05 nM. Each of the cells was cultured for 5 days. To check cell viability, a mixture provided in a CellTiter-Glo® Luminescent Cell Viability Assay Kit (Promega) was added to each of the cultured cell media, and cultured for another 10 minutes under a condition of 37° C. Then, a degree of luminescence (fluorescence) was measured. A degree of inhibition of the cell growth according to the treatment concentration of each of the compounds was calculated based on the fluorescence of the solvent control cells which were not treated with the compound. In this case, the concentration of each of the compounds inhibiting 50% of the cell growth was determined to be a GI50 (nM) value, and calculated using Prism (Version 7.01; GraphPad) software.
(§2) Next, the activities of the Example compounds against various types of carcinomas other than the TNBC were evaluated in a similar manner as described above. In the following table, the following active value range (GI50 (nM)) was used to evaluate cell proliferation inhibitory activity.

For assay [2], the system named is A549. Described as above. The class given is cell-based. The procedure: as §1, §2
For assay [3], the system named is BxPC3. Described as above. The class given is cell-based. How it is done:
as §1, §2

Assay [4] relates to DU145. The assay is described as above. In kind it is cell-based. The procedure:
as §1, §2

The test system of assay [5] is MDA-MB-231 cells. Description: Inhibition of proliferation of triple-negative breast cancer cells, CellTiter-Glo. The class given is cell-based. The following applies: Homo sapiens, 120 h; MDA-MB-231, cultured for 5 days. The gist of the method: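 MDA-MB-231 cells pre-cultured 24 h (5% CO2, 37 °C), then exposed to compound for 5 days at 12 three-fold dilutions, final 10 μM to 0.05 nM. Viability read by CellTiter-Glo luminescence after 10 min at 37 °C; growth inhibition calculated relative to untreated solvent-control cells.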

In assay [6] the target is T1, TTK (Homo sapiens, UniProt P33981).
T1 sequence (P33981 1-857): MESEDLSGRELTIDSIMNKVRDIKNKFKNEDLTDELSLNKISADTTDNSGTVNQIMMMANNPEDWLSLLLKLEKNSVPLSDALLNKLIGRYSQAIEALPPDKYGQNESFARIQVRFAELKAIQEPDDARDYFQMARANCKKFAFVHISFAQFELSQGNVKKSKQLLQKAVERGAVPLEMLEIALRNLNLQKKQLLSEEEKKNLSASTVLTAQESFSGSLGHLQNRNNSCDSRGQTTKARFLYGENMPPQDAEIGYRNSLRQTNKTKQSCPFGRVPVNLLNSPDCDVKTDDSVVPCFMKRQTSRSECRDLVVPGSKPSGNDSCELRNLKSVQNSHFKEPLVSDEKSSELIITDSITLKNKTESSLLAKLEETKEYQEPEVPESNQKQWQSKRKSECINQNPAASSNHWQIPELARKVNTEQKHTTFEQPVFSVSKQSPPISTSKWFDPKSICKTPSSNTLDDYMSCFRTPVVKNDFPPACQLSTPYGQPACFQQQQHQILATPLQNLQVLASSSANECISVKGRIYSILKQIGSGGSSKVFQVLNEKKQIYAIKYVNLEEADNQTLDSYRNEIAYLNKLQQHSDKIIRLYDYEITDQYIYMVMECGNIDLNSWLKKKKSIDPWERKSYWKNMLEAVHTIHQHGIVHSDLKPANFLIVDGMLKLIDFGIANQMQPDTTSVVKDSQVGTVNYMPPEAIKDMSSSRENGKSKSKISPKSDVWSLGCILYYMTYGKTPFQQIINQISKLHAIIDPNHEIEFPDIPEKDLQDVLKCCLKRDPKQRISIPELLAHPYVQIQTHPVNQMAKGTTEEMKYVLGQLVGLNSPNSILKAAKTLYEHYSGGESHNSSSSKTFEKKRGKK
Description: TTK enzyme activity, ADP-Glo kinase assay. The class given is biochemical. On the set-up: purchased SignalChem T20-10G. Particulars: purified human TTK, ATP 10 μM, 25° C., 2 hours. The gist of the method:
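Purified human TTK (25 ng) incubated with 10 μM ATP and substrate (0.2 μg) for 2 h at 25 °C in Tris-HCl pH 7.4, MgCl2, BSA, DTT buffer. ADP formation read by ADP-Glo; inhibition calculated against untreated solvent control.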
On the technique in general: ADP-Glo first removes unused ATP, then detects ADP through luciferase.

In assay [7] the test system is SHP-77. The experiment in a line: Inhibition of proliferation of small cell lung cancer cells, CellTiter-Glo. Particulars: Homo sapiens, SHP77, 120 h; SHP-77, cultured for 5 days. In kind it is cell-based. The gist of the method: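 SHP-77 cells at 2,000–3,000 cells/well, cultured 24 h at 37° C, 5% CO2, then given 12 threefold compound dilutions, final 10 μM to 0.05 nM, for 5 days. Viability by CellTiter-Glo luminescence relative to solvent control. GI50 from concentration–response.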
In general terms: Cellular ATP, detected with luciferase, serves as a proxy for viable cell number.

Each structure is given as a SMILES string. Where two headings read alike, the source gives them in different places.

For `COc1cc(N2CCCC2=O)ccc1Nc1nc(NC2CCCC2)c2cc[nH]c2n1` [Example 47, 1-(4-((4-(cyclopentylamino)-7H-pyrrolo[2,3-d]pyrimidin-2-yl)amino)-3-methoxyphenyl) pyrrolidin-2-one], the 50% growth inhibitory concentration (GI50) in assay [1] (Homo sapiens, HCT-116) is less than 100 nM; in assay [2] (Homo sapiens), less than 100 nM; in assay [3] (Homo sapiens, BXPC-3), less than 100 nM; in assay [4] (Homo sapiens, DU-145), less than 100 nM.

For `COc1cc(N2CCCC2=O)ccc1Nc1nc(NC2CCCCC2)c2cc[nH]c2n1` [Example 48], the GI50 in assay [1] (HCT116), in assay [2], in assay [3] (BxPC3) and in assay [4] (DU145) was less than 100 nM throughout.

As for `COc1cc(N2CCCC2=O)ccc1Nc1nc(NC2CCCC2)c2c(C(F)(F)F)c[nH]c2n1` [Example 52], the concentration for 50% growth inhibition (GI50) in assay [1] (Homo sapiens, HCT-116) lay within 100 to 1000 nM; in assay [2] (Homo sapiens) it was 100 to 1000 nM; in assay [3] (Homo sapiens, BXPC-3), 100 to 1000 nM; in assay [4] (Homo sapiens, DU-145), 100 to 1000 nM.

For `COc1cc(N2CCCC2=O)ccc1Nc1nc(NC2CCCCC2)c2c(C(F)(F)F)c[nH]c2n1` [Example 53, 1-(4-((4-(cyclohexylamino)-5-(trifluoromethy1)-7H-pyrrolo[2,3-d]pyrimidin-2-yl)amino)-3-methoxyphenyl) pyrrolidin-2-one], the GI50 in assay [1] (Homo sapiens, HCT-116) was in the range of 100 to 1000 nM; in assay [2] (Homo sapiens) it was 100 to 1000 nM; in assay [3] (Homo sapiens, BXPC-3) it was 100 to 1000 nM; in assay [4] (Homo sapiens, DU-145), 100 to 1000 nM; in assay [5], 100 to 1000 nM. Besides, in assay [6], the 50% inhibitory concentration (IC50) was less than 50 nM.

`CNc1nc(Nc2ccc(N3CCCC3=O)cc2OC)nc2[nH]cc(C#N)c12` [Example 54, 2-((2-methoxy-4-(2-oxopyrrolidin-1-yl)phenyl)amino)-4-(methylamino)-7H-pyrrolo[2,3-d] pyrimidine-5-carbonitrile]: the concentration for 50% growth inhibition (GI50) in assay [1] (Homo sapiens, HCT-116) was 100 to 1000 nM; in assay [2] (Homo sapiens), 100 to 1000 nM; in assay [3] (Homo sapiens, BXPC-3), 100 to 1000 nM; in assay [4] (Homo sapiens, DU-145), 100 to 1000 nM; in assay [5], 100 to 1000 nM. This molecule also yielded a 50% inhibitory concentration (IC50) in assay [6] of 50 to 200 nM.

On to `COc1cc(N2CCCC2=O)ccc1Nc1nc(NC2CCCC2)c2c(C#N)c[nH]c2n1` [Example 55, 4-(cyclopentylamino)-2-((2-methoxy-4-(2-oxopyrrolidin-1-yl)phenyl)amino)-7H-pyrrolo[2,3-d] pyrimidine-5-carbonitrile], for which the 50% growth inhibitory concentration (GI50) in assay [1] (Homo sapiens, HCT-116) was less than 100 nM; in assay [2] (Homo sapiens), less than 100 nM; in assay [3] (Homo sapiens, BXPC-3) it was less than 100 nM; in assay [4] (Homo sapiens, DU-145) it was less than 100 nM; in assay [5] it was less than 100 nM. This molecule also returned an IC50 in assay [6] of less than 50 nM.

As to `COc1cc(N2CCCC2=O)ccc1Nc1nc(NC2CCCCC2)c2c(C#N)c[nH]c2n1` [Example 56, 4-(cyclohexylamino)-2-((2-methoxy-4-(2-oxopyrrolidin-1-yl)phenyl)amino)-7H-pyrrolo[2,3-d] pyrimidine-5-carbonitrile], the 50% growth inhibitory concentration (GI50) was less than 100 nM in assay [1] (Homo sapiens, HCT-116); less than 100 nM in assay [2] (Homo sapiens); less than 100 nM in assay [3] (Homo sapiens, BXPC-3); less than 100 nM in assay [4] (Homo sapiens, DU-145); less than 100 nM in assay [5]; less than 100 nM in assay [7]. The same molecule yielded an IC50 in assay [6] of less than 50 nM.

On to `COc1cc(N2CCCC2=O)ccc1Nc1cc(NC2CCCCC2)c2c(C(F)(F)F)c[nH]c2n1` [Example 62, 1-(4-((4-(cyclohexylamino)-3-(trifluoromethyl)-1H-pyrrolo[2,3-b]pyridin-6-yl)amino)-3-methoxyphenyl) pyrrolidin-2-one], for which the GI50 in assay [1] (Homo sapiens, HCT-116) lay within 100 to 1000 nM; in assay [2] (Homo sapiens) it was 100 to 1000 nM; in assay [3] (Homo sapiens, BXPC-3), 100 to 1000 nM; in assay [4] (Homo sapiens, DU-145), 100 to 1000 nM.

Turning to `COc1cc(N2CCCC2=O)ccc1Nc1cc(NC2CCCC2)c2c(C#N)c[nH]c2n1` [Example 63, 4-(cyclopentylamino)-6-((2-methoxy-4-(2-oxopyrrolidin-1-yl)phenyl)amino)-1H-pyrrolo[2,3-b] pyridine-3-carbonitrile], the 50% growth inhibitory concentration (GI50) in assay [1] (Homo sapiens, HCT-116) was less than 100 nM; in assay [2] (Homo sapiens), less than 100 nM; in assay [3] (Homo sapiens, BXPC-3), less than 100 nM; in assay [4] (Homo sapiens, DU-145) it was less than 100 nM; in assay [5] it was 100 to 1000 nM. In assay [6], the IC50 is less than 50 nM.
